Assay in all cases: NCI anticancer screen, dose series, 48 h
The test system of assay [1] is MALME-3M melanoma.
Assay [2] deals with HOP-92 NSCLC.
Assay [3] has as its system HT29 colon.
Assay [4] relates to COLO 205 colon.
Assay [5] has as its system SR leukemia.
The subject of assay [6] is SK-MEL-5 melanoma.
In assay [7] the test system is MDA-N.
The test system of assay [8] is TK-10 renal.
Assay [9] relates to 786-0 renal.
Assay [10] has as its system LXFL 529 NSCLC.
Assay [11] has as its system DMS 114 small cell lung.

SMILES strings stand for the structures. In brackets after ≈: the same amount, converted by molar mass. Several values for one entry are separate records, joined by “and”; a condition that tells them apart may be missing. Identical values can stand only once.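 Exposure lasted 48 hours, with cells grown in 96-well plates and compounds tested at five concentrations. Here, GI50 denotes the concentration required for 50% inhibition of growth. TGI: concentration producing complete growth inhibition.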 Where a SMILES comes first, the peptide text is derived from it. The star is where a group is joined. Boc = CC(C)(C)OC(=O)* Where only a bound is given, the exact number is not on record here.

As for `COC12C(COC(N)=O)C3=C(C(=O)C(C)=C(N)C3=O)N1CC1C2N1C` (stereo unspecified), the TGI in [1] was found to be 18.7 µM; in assay [2], 36.4 µM; in assay [3], 43.2 µM; in assay [4] it was 21.6 µM; in assay [5] it was 56.5 µM; in assay [6], 9.19 µM. Moreover, the TGI in assay [7] worked out at 35.3 µM; in assay [8], 69.5 µM; in assay [9], 68.5 µM.

For the compound `C=COC(=O)N[C@H]1CCc2cc(OC)c(OC)c(OC)c2-c2ccc(SC)c(=O)cc21`, the TGI in assay [1] was greater than 100 µM; in assay [2], 22.8 µM; in assay [3] it was 0.149 µM; in assay [4], less than 0.01 µM; in assay [10], greater than 100 µM; in [5] it was greater than 15.5 µM. Moreover, the TGI was 0.097 µM in assay [6], less than 0.01 µM in assay [7], 86.5 µM in assay [8] and 50.8 µM in [9].

In the case of `C/C(=N\NC(=S)N1CCCCCC1)c1ccccn1`, the TGI in assay [11] is 0.138 µM and 0.0298 µM; in assay [1], 1.17 µM and 1.72 µM; in assay [2], 0.3 µM; in assay [3], 2.52 µM and 10.6 µM; in assay [4], 0.0286 µM; in assay [10] it was 0.19 µM and 0.405 µM. Also, the TGI was 1.09 µM and 0.741 µM in assay [6]; 1.5 µM in assay [7]; 8.56 µM and 7.56 µM in assay [8]; 2.17 µM and 3.12 µM in assay [9]. In addition, the GI50 in assay [1] was 0.0966 µM; in assay [2], 0.217 µM; in [6], 0.0209 µM; in assay [7], 0.169 µM; in [9], 0.0992 µM.

On to `O=c1[nH]c2ccc(O)cc2o1`, for which the TGI in [1], in [3], in assay [4], in [5], in [6] and in assay [7] was greater than 100 µM throughout. Further, the TGI in assay [8] and in assay [9] was greater than 100 µM throughout.

For the compound `[N-]=[N+]=N/C1=C/CCCCC(=O)C1`, the TGI in assay [11], in [1], in assay [2], in assay [3], in assay [4] and in assay [10] was greater than 100 µM each time. The TGI in [6], in assay [8] and in assay [9] was greater than 100 µM throughout.

In the case of `CN(C)CCSc1cc(-c2ccccc2)c2ccccc2n1`, the TGI in [1] is 26 µM; in [3], 35.8 µM; in [4], 4.85 µM; in assay [5], greater than 100 µM; in assay [6], 4.7 µM; in assay [7], 22.7 µM. Further, the TGI in assay [8] amounted to 19.4 µM; in assay [9], 25.2 µM.

As to `CC12CCC3c4ccc(O)cc4CCC3C1C/C(=N\O)C2O` (stereo unspecified), the TGI in assay [1], in assay [2], in [3], in assay [4], in assay [5] and in assay [6] was greater than 100 µM throughout. Further, the TGI in assay [7], in [8] and in assay [9] was greater than 100 µM throughout.

On to `CC(=O)N1CCC(=O)/C(=C/c2ccccc2)C1`, for which the TGI in [11] is 30.8 µM; in [1], greater than 100 µM; in assay [2], greater than 100 µM; in [3], 38.8 µM; in [4], greater than 100 µM; in assay [10], 47.2 µM. For the same compound, the TGI in assay [5] is 72.5 µM; in assay [6] it was greater than 100 µM; in assay [8] it was greater than 100 µM; in assay [9], 69.6 µM.

For the compound `Cc1ccc(S(=O)OCc2c(C)c(C)c(COS(=O)c3ccc(C)cc3)c(C)c2C)cc1` (stereo unspecified), the TGI in assay [11], in assay [1], in assay [2], in [3], in [4] and in assay [10] was greater than 100 µM in each case. For the same compound, the TGI in assay [5], in [6], in assay [8] and in assay [9] was greater than 100 µM throughout.

Take `Oc1ccc2ccccc2c1N=Nc1ccc(Br)cc1`: the TGI in [1], in assay [2], in [3], in assay [4], in assay [5] and in [6] was greater than 100 µM in each case. In addition, the TGI in assay [7], in [8] and in [9] was greater than 100 µM throughout.

Take `CN(C)c1ncnc2c1ncn2CCn1cnc2c(N(C)C)ncnc21`: the TGI in assay [1], in [2], in assay [3], in [4], in assay [5] and in assay [6] was greater than 100 µM in each case. The TGI in assay [7], in assay [8] and in assay [9] was greater than 100 µM each time.

With `COC(=O)C(C)NC(=O)C(CCSC)NC(=O)C(Cc1ccccc1)NC(=O)OC(C)(C)C` (stereo not drawn) (Boc-Phe-Met-Ala-OMe; configuration not given here), the TGI in assay [1] is greater than 100 µM; in [2] it was greater than 100 µM; in assay [3], greater than 100 µM; in assay [4] it was 47.4 µg/mL and > 100 µM; in assay [5], 44.8 µg/mL and > 100 µM; in assay [6], greater than 100 µM. Also, the TGI in assay [7] and in [9] was greater than 100 µM in each case. Moreover, the GI50 in [4] is 24.2 µg/mL (≈ 50.3 µM); in assay [5] it was 21.4 µg/mL; in [7] it was 48.9 µg/mL; in assay [8], 4.41 µg/mL (≈ 9.15 µM); in assay [9] it was 43.3 µg/mL.

On to `CC1(Br)Cc2ccccc2C1=O` (stereo unspecified), for which the TGI is 9.62 µM and 14.1 µM in assay [1]; 16.5 µM in assay [2]; 15.4 µM in assay [3]; 17.5 µM in assay [4]; 1.25 µM in assay [5]; 12.5 µM in [6]. Also, the figures for the TGI in assay [7], in assay [8] and in [9] were 18.2 µM, 29.8 µM and 6.39 µM, respectively. Moreover, the GI50 is 0.129 µM in [5], 2.75 µM in assay [6] and 4.45 µM in assay [7].

The record behind these values is PubChem BioAssay (NCI).
